# Literature values, collected in publication PMC5760531, “Action Potential Recording and Pro-arrhythmia Risk Analysis in Human Ventricular Trabeculae” (Frontiers in Physiology, 2018).
# Assays:
# Nav1.5 = tested on: Nav1.5; design: method as in Qu and Vargas, 2015; conditions: previous experiments; ref Qu and Vargas, 2015; cited from earlier work
# [1] = cited from earlier work
smiles,measurement,setting,value
"Nc1nnc(-c2cccc(Cl)c2Cl)c(N)n1 [LAMOTRIGINE, Lamotrigine]",IC50,Nav1.5,40 µM
same,Free ETPC,[1]; human free (unbound) effective therapeutic plasma concentration used to calculate multiples,17 µM
same,free therapeutic exposure,"[1]; human, ref Dixon et al., 2008",approximately 17 μM
